Target: T1, Human recombinant Casp7 (Homo sapiens, UniProt P55210)
T1 construct: purchased BioVision (Milpitas/CA, USA)
T1 sequence (P55210 1-303): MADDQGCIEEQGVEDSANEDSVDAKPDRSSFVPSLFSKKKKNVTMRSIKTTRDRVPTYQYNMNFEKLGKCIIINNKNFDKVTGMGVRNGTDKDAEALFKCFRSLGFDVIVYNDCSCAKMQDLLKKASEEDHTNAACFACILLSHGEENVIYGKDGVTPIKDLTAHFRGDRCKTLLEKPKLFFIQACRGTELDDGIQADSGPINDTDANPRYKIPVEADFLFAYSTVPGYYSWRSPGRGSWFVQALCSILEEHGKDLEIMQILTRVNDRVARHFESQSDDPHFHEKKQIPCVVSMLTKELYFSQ
Assay: In vitro caspase panel assay, Casp7
Type: biochemical
Details: Casp2 over Casp7, caspase panel
Source text: Human recombinant Casp1, 6, 7, and 9 were purchased from BioVision (Milpitas/CA, USA). AFC fluorogenic substrates and control peptides (AcYVAD-CHO, AcVDVAD-CHO, AcDEVD-CHO, AcVEID-CHO, and AcLEHD-CHO) were purchased from Bachem (Torrance/CA, USA). The pET23b vector encoding human caspase-3 was a gift of Dr. Michelle Arkin at University of California, San Francisco. Expression and purification of Casp3 was guided by previously described protocols (Denault J-B, Salvesen G S., Current Protocols in Protein Science, 2002, 30(1), 21.13. 1-21.13. 15). Briefly, the plasmid was transformed into E. coli Rosetta 2 pLyss DE3 cells that were cultured at 1 L scale in shake flasks. […] The typical yield for the expression, isolation, and purification was approximately 3 mg/L. The DNA encoding human caspase-2 (hCASP2, amino acids 170-452, free of the N-terminal caspase activation and recruitment domain) open reading frame (ORF) was amplified via polymerase chain reaction (PCR) from full-length hCASP2 cDNA (Origene, Rockville, MD; Cat #SC321316) using following primers: forward, 5′-[…]-3′; reverse, 5′-[…]-3′. […] Proteins were stored in 1× phosphate-buffered saline (pH 7.4) at 10 mg/mL (concentration determined using a BCA assay (Thermo Fisher Scientific)), −80° C. until further use. […]

Compound: Cc1ccc2c(c1)CCN(C(=O)[C@@H](NC(=O)[C@H](CCCC(=O)O)NC(=O)C1Cc3ccccc3N1)C(C)C)[C@@H]2C(=O)N[C@H](C#N)CC(=O)O (stereo partly drawn) [Compound 1, (8)-6-(((S)-1-((8)-1-(((S)-2-carboxy-1-cyanoethyl)carbamoyl)-6-methyl-3,4-dihydroisoquinolin-2(1H)-yl)-3-methyl-1-oxobutan-2-yl)amino)-5-((S)-indoline-2-carboxamido)-6-oxohexanoic acid]
- selective versus Casp7: > 2000 fold

Source: patent US20250188123A1, “PROTEASE INHIBITORS” (Regents of the University of Minnesota, priority 2022, published 2025)
